# According to publication PMC5862576, “Mitochondrial fission as a driver of stemness in tumor cells: mDIVI1 inhibits mitochondrial function, cell migration and cancer stem cell (CSC) signalling” (Oncotarget, 2018):
# Columns and labels:
# Type in all cases: cell-based, Human
# Wnt signalling = assay: Luciferase reporter assay MCF7-GFP-TCF/LEF(luc); conditions: 50 µM, 2 and 5 days
# Procedure: (§1) The Cignal Lenti reporter assay (luc) was used to monitor the activity of several signalling pathways in MCF7-GFP cells as explained previously. Luciferase Assay System (E1501, Promega) was performed according to manufacturer’s instructions. 1 × 10^4 MCF7 were seeded in black-walled 96 well plates. When cells were attached, drug treatments were added for 18, 48 hours and 5 days. After treatment, Luciferase Assay was performed according to manufacturer’s instructions and light signal was acquired in the Xenogen VivoVision IVIS Lumina. Results were normalized by SRB staining of cells grown in 96-well plates in parallel.
# (§2) SRB (S9012, Sigma) measures total biomass by staining cellular proteins. After treatment, cells were fixed in 10% tricloroacetic acid (T9159, Sigma) for 1 hour at 4° C, stained with SRB (S9012, Sigma) for 15 minutes, and washed 3 times with 1% acetic acid (27225, Sigma). The incorporated die was solubilized with 10 mM Tris Base, pH 8.8 (T1503, Sigma). Absorbance was spectrophotometrically measured at 562 nm in a FluoStar Omega plate reader (BMG Labtech). Background measurements were subtracted from all values.
# MCF7 cells [1] = assay: DAPI viability of cells in suspension (anoikis resistance, FACS)
# Procedure: (§3) Following mDIVI1 treatment, MCF7 cells grown either in suspension or as monolayers were analysed for their expression of CD24 and CD44. The surviving fraction after 2 days and 5 days of growth was analyzed by FACS. MCF7 cells were either trypsinised or spun down and trypsinised and incubated with CD24 (IOTest CD24-PE, Beckman Coulter) and CD44 (APC mouse anti-human CD44, 559942, BD Pharmingen) for 15 minutes on ice. Cells were then rinsed twice in PBS, spun down, and resuspended with DAPI dye (D1306, Molecular probes) at 3 μM in PBS for 10 minutes. Samples were then analyzed by FACS (Fortessa, BD Bioscence). Only the live cell population, identified using the DAPI staining, was analyzed for CD24/CD44 expression. Data were analyzed using FlowJo software.
# MCF7 cells [2] = assay: Mitochondrial superoxide (MitoSOX, flow cytometry); conditions: both concentrations; 24 hour, 2 and 5 days; vs vehicle
# Procedure: For both assays, 2 × 10^5 MCF7 cells were seeded in 35 mm plates. When cells were attached, either vehicle or mDIVI1 were added to the cells for 24, 48 hours or 5 days in triplicate. Reactive oxygen species (ROS) production was measured using CM-H2DCFDA (C6827, Invitrogen). Briefly, cells were incubated for 20 minutes at 37° C with 1 µM CM-H2DCFDA diluted in PBS and then placed in complete media for 20 minutes at 37° C in the dark, to render the dye fluorescent, according to the manufacturer. Mitochondrial superoxide was measured using MitoSOX Red Mitochondrial Superoxide Indicator (M36008, ThermoFisher Scientific). Briefly, cells were incubated for 10 minutes at 37° C in the dark with 5 µM MitoSOX diluted in PBS, according to the manufacturer. ROS signal and MitoSOX signal was quantified as mean fluorescent intensity of the viable cell population in a Fortessa flow cytometer (BD Bioscience). Results were analysed using FlowJo software.
# Hedgehog signalling = assay: Luciferase reporter assay MCF7-GFP-GLI(luc); conditions: 50 µM, 2 and 5 days
# Procedure: as §1, §2
# MCF7 cells [3] = assay: Mitochondrial mass quantification (MitoTracker Deep Red, flow cytometry); conditions: 50 µM, 5 days, vs vehicle
# Procedure: To measure mitochondrial mass, cells were stained with MitoTracker Deep Red (M22426, Invitrogen). Briefly, 2 × 10^5 MCF7 cells per well were seeded in 6-well plates. When cells were attached, mDIVI1 and vehicle treatments were added for 2 days or 5 days in triplicate. Cells were then incubated for 15 min at 37° C with the 10 nM Mitotracker Deep Red probe diluted in PBS ([…], Sigma). All subsequent steps were performed in the dark. Cells were washed in PBS, harvested, and re-suspended in PBS. Mitotracker signal was quantified as mean fluorescent intensity of the viable cell population in a Fortessa flow cytometer (BD Bioscience). Results were analyzed using FlowJo software.
# MCF7 cells [4] = assay: Scratch assay (wound closure); conditions: 48 hours
# Procedure: A hundred thousand MCF7 cells per well were seeded in 12-well plates. When cells were attached, a horizontal scratch was performed using the tip of a pipette. Immediately after, the media was removed and either fresh vehicle-containing media or mDIVI1-containing media were added to the cells for 48 hours. Four replicates were used for each condition. Cells were incubated in a 5% CO2 atmosphere at 37° C in an Incucyte ZOOM System (Essen Bioscience). The wound closure was monitored by taking pictures of each well every 4 hours. At the end of the treatment, pictures of the wells at 0 and 48 hours were analysed using ImageJ software to calculate wound closure according to the following formula: Percentage wound closure=[(wound area0h−wound area48h)/wound area0h]×100
# Notch signalling = assay: Luciferase reporter assay MCF7-GFP-Rbp/Jk(luc); conditions: 50 µM, 2 and 5 days
# Procedure: as §1, §2
# MCF7 cells [5] = assay: DAPI immunofluorescence staining (binucleated cells); conditions: 50 µM; data not shown
# MCF7 cells [6] = assay: CD24/CD44 expression (FACS)
# Procedure: as §3
# MCF7 cells [7] = assay: Bradford assay (protein content)
# Procedure: Extracellular acidification rate (ECAR) and oxygen consumption rate (OCR) were measured in a XF96 Extracellular Flux Analyzer (Seahorse Biosciences). Briefly, 1 × 10^4 MCF7 cells per well were seeded in XF96 plates and incubated with complete medium. When cells were attached, mDIVI1 and vehicle treatments were added. Six replicates were run for each condition. After 48 hours, un-buffered DMEM XF medium supplemented with 2 mM glutamine (pH 7.4) was added to the cells, and placed in a 37° C CO2-free incubator for 1 hour. Ten mM glucose, 1 μM oligomycin and 100 mM 2-deoxyglucose (2-DG) were injected into the media at different time points and ECAR was measured. Likewise, ECAR and OCR were quantified using un-buffered DMEM XF medium supplemented with 2 mM glutamine, 2 mM sodium pyruvate and 10 mM glucose. One μM oligomycin, 0.9 μM FCCP and 1 μM rotenone and antimycin A were injected into the media at different time points and OCR and ECAR were measured.
# Cells were finally lysed with 0.1 M NaOH and protein lysate was subsequently stained with Quick Start™ Bradford 1× Dye Reagent (500–0205, BioRad) to normalise results. All parameters were calculated according to manufacturer.
smiles,measurement,setting,value
"COc1cc(-n2c(=S)[nH]c3ccccc3c2=O)c(Cl)cc1Cl [mDIVI1, 3-(2,4-Dichloro-5-methoxyphenyl) 2,3-dihydro 2-thioxo-4(1H) quinazolinone]",Wnt/TCF pathway luciferase activity,Wnt signalling,strikingly caused the inhibition
same,cell viability under anchorage-independent conditions (DAPI) vs vehicle,MCF7 cells [1],no significant differences
same,mitochondrial superoxide production (MitoSOX),MCF7 cells [2],significantly increased
same,Hedgehog/GLI pathway luciferase activity,Hedgehog signalling,strikingly caused the inhibition
same,Mitotracker Deep Red mean fluorescence intensity (mitochondrial mass),MCF7 cells [3],significantly higher
same,reduction of percentage of wound closure vs vehicle,MCF7 cells [4]; 10 µM,14%
same,reduction of percentage of wound closure vs vehicle,MCF7 cells [4]; 50 µM,44%
same,Notch/Rbp pathway luciferase activity,Notch signalling,strikingly caused the inhibition
same,binucleated cells (failure of cytokinesis),MCF7 cells [5],increase in binucleated cells
same,CD24−/CD44+ subpopulation,"MCF7 cells [6]; 50 µM, in suspension",significantly increased
same,abundance of CD24−/CD44+ subpopulation,"MCF7 cells [6]; 10 or 50 µM, cells grown as monolayers, vs vehicle",not reduced
same,amount of CD24−/CD44+ cells,"MCF7 cells [6]; cells in suspension, dose-dependent",unexpectedly increased
same,effect on MCF7 protein content,"MCF7 cells [7]; 10 µM, 48 hours",slightly decreased
same,effect on MCF7 protein content,"MCF7 cells [7]; 20 µM, 2 days",significantly reduced
same,reduction of MCF7 protein content,"MCF7 cells [7]; 50 µM, 48 hours",~40%
